Patent publication US20240209028A1, “CNP COMPOUNDS” (priority 2022, published 2024)
Starred links: 1 amine or outer side, 2 acyl side, 3 side chain; linkers in the order of their positions; H or OH if unused. Positions of bridges follow the written chain, without caps; N, C: chain ends. Residues, ends and D or L forms follow the SMILES beside them. *: point of attachment. C18 diacid = O=C(O)CCCCCCCCCCCCCCCCC(=O)*; γGlu = O=C(O)[C@H](CCC(=O)[*:2])N[*:1]; AEEA = NCCOCCOCC(=O)O

Biological target: T1, human natriuretic peptide receptor 2 (hNPR2) (Homo sapiens, UniProt P20594)
T1 construct: expressed in transfected cells; host or cells: HEK293 (ATCC CRL-1573), clone 35, co-transfected with pGloSensor-42F
T1 sequence (P20594 23-1047): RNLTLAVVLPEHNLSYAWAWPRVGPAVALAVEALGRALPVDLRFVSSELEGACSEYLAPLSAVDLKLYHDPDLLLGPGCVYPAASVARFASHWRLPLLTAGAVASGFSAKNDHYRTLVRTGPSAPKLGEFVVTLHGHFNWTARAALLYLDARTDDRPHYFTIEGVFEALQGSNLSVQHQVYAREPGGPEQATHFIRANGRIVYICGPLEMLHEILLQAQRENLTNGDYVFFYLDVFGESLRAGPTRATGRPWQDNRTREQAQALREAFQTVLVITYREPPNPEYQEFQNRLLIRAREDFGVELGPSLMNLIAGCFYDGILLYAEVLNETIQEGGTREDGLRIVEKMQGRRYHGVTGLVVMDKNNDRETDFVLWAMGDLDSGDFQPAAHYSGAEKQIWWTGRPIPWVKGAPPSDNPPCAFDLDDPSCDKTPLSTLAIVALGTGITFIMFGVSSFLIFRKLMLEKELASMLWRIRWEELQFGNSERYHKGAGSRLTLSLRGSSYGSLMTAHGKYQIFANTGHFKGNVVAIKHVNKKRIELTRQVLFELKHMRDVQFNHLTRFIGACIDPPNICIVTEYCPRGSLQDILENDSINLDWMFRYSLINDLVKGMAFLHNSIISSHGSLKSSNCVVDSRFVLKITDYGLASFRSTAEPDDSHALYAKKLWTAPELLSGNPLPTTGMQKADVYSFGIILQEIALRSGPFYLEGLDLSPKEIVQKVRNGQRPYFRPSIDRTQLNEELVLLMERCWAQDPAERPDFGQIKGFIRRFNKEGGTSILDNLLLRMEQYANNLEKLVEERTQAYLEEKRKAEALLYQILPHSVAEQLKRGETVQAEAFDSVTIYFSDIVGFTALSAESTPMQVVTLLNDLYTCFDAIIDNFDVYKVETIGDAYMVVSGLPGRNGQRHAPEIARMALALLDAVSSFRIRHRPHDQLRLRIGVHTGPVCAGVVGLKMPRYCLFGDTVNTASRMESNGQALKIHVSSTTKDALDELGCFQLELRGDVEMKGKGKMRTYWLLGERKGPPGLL
Assay: In vitro hNPR2 activity assay (cGMP GloSensor reporter, HEK293)
Type: cell-based
Details: for hNPR2 0% HSA. [EC50% rel CNP]: potency relative to CNP22 (0065); for EC50: 0% HSA, HEK293-hNPR2/GloSensor cells
Method in brief: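 Potency is the EC50 from a four-parameter logistic fit, also expressed relative to the in-plate CNP22 control (×100), with at least two replicates. Compounds (ten concentrations, […], HSA-free diluent with 1% OVA, 0.01% Tween20) were incubated 30 min at 37 °C on HEK293 cells co-expressing hNPR2 and a GloSensor cGMP luciferase. Luminescence detected with Bright-Glo.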

| SMILES | hNPR2 0% HSA. [EC50% rel CNP] | EC50 |
| --- | --- | --- |
| CC[C@H](C)[C@@H]1NC(=O)[C@H](CCCNC(=N)N)NC(=O)[C@H](CC(=O)O)NC(=O)[C@H](CC(C)C)NC(=O)[C@@H]2CCCN2C(=O)[C@H](CC(C)C)NC(=O)CNC(=O)[C@H](Cc2ccccc2)NC(=O)[C@@H](NC(=O)CNC(=O)[C@H](CO)NC(=O)[C@H](CO)NC(=O)[C@H](CC(C)C)NC(=O)CNC(=O)[C@@H](NC(=O)[C@H](Cc2c[nH]cn2)NC(=O)[C@H](CCC(N)=O)NC(=O)[C@H](C)NC(=O)CNC(=O)[C@H](CCCCN)NC(=O)[C@H](Cc2ccc(O)cc2)NC(=O)COCCOCCNC(=O)COCCOCCNC(=O)CC[C@H](NC(=O)CCCCCCCCCCCCCCCCC(=O)O)C(=O)O)[C@@H](C)O)CSSC[C@@H](C(=O)O)NC(=O)CNC(=O)[C@H](CC(C)C)NC(=O)CNC(=O)[C@H](CO)NC(=O)[C@H](CC(C)C)NC(=O)[C@H](CO)NC(=O)CNC1=O [compound 1305] ({C18 diacid-γGlu-AEEA-AEEA}-YKGAQHTGLSSGCFGLPLDRIGSLSGLGC-OH; disulfide 13-29) | 8.7% | – |
| CC[C@H](C)[C@@H]1NC(=O)[C@H](CCCNC(=N)N)NC(=O)[C@H](CC(=O)O)NC(=O)[C@H](CC(C)C)NC(=O)[C@@H]2CCCN2C(=O)[C@H](CC(C)C)NC(=O)CNC(=O)[C@H](Cc2ccccc2)NC(=O)[C@@H](NC(=O)CNC(=O)[C@H](CCCCN)NC(=O)[C@H](CO)NC(=O)[C@H](CC(C)C)NC(=O)CNC(=O)[C@H](CCCCN)NC(=O)[C@H](CCCCN)NC(=O)[C@H](CCC(N)=O)NC(=O)[C@H](C)NC(=O)CNC(=O)[C@H](Cc2c[nH]cn2)NC(=O)[C@H](CCC(=O)O)NC(=O)COCCOCCNC(=O)COCCOCCNC(=O)CC[C@H](NC(=O)CCCCCCCCCCCCCCCCC(=O)O)C(=O)O)CSSC[C@@H](C(=O)O)NC(=O)CNC(=O)[C@H](CC(C)C)NC(=O)CNC(=O)[C@H](CO)NC(=O)[C@H](CC(C)C)NC(=O)[C@H](CO)NC(=O)CNC1=O [compound 1309] ({C18 diacid-γGlu-AEEA-AEEA}-EHGAQKKGLSKGCFGLPLDRIGSLSGLGC-OH; disulfide 13-29) | 33.3% | – |
| CC[C@H](C)[C@@H]1NC(=O)[C@H](CCCNC(=N)N)NC(=O)[C@H](CC(=O)O)NC(=O)[C@H](CC(C)C)NC(=O)[C@@H]2CCCN2C(=O)[C@H](CC(C)C)NC(=O)CNC(=O)[C@H](Cc2ccccc2)NC(=O)[C@@H](NC(=O)CNC(=O)[C@H](CO)NC(=O)[C@H](CO)NC(=O)[C@@H](NC(=O)CNC(=O)[C@H](CCCCN)NC(=O)[C@H](CCCCN)NC(=O)[C@H](CCC(N)=O)NC(=O)[C@H](C)NC(=O)CNC(=O)[C@H](Cc2c[nH]cn2)NC(=O)[C@H](CCC(=O)O)NC(=O)COCCOCCNC(=O)COCCOCCNC(=O)CC[C@H](NC(=O)CCCCCCCCCCCCCCCCC(=O)O)C(=O)O)C(C)C)CSSC[C@@H](C(=O)O)NC(=O)CNC(=O)[C@H](CC(C)C)NC(=O)CNC(=O)[C@H](CO)NC(=O)[C@H](CC(C)C)NC(=O)[C@H](CO)NC(=O)CNC1=O [compound 1311] ({C18 diacid-γGlu-AEEA-AEEA}-EHGAQKKGVSSGCFGLPLDRIGSLSGLGC-OH; disulfide 13-29; C-terminus assumed) | 12.7% | – |
| CC[C@H](C)[C@@H]1NC(=O)[C@H](CCCNC(=N)N)NC(=O)[C@H](CC(=O)O)NC(=O)[C@H](CC(C)C)NC(=O)[C@@H]2CCCN2C(=O)[C@H](CC(C)C)NC(=O)CNC(=O)[C@H](Cc2ccccc2)NC(=O)[C@@H](NC(=O)CNC(=O)[C@H](CO)NC(=O)[C@H](CO)NC(=O)[C@@H](NC(=O)CNC(=O)[C@@H](NC(=O)[C@H](CCCCN)NC(=O)[C@H](CCC(N)=O)NC(=O)[C@H](C)NC(=O)CNC(=O)[C@H](Cc2c[nH]cn2)NC(=O)[C@H](CCC(=O)O)NC(=O)COCCOCCNC(=O)COCCOCCNC(=O)CC[C@H](NC(=O)CCCCCCCCCCCCCCCCC(=O)O)C(=O)O)[C@@H](C)O)C(C)C)CSSC[C@@H](C(=O)O)NC(=O)CNC(=O)[C@H](CC(C)C)NC(=O)CNC(=O)[C@H](CO)NC(=O)[C@H](CC(C)C)NC(=O)[C@H](CO)NC(=O)CNC1=O [compound 1312] ({C18 diacid-γGlu-AEEA-AEEA}-EHGAQKTGVSSGCFGLPLDRIGSLSGLGC-OH; disulfide 13-29) | 9.0% | – |
| CC[C@H](C)[C@@H]1NC(=O)[C@H](CCCNC(=N)N)NC(=O)[C@H](CCC(=O)O)NC(=O)[C@H](CC(C)C)NC(=O)[C@H](CCCCN)NC(=O)[C@H](CC(C)C)NC(=O)CNC(=O)[C@H](Cc2ccccc2)NC(=O)[C@@H](NC(=O)CNC(=O)[C@H](CCCCN)NC(=O)[C@H](CO)NC(=O)[C@H](CC(C)C)NC(=O)CNC(=O)[C@H](Cc2c[nH]cn2)NC(=O)[C@H](Cc2c[nH]cn2)NC(=O)[C@H](CCC(N)=O)NC(=O)[C@H](C)NC(=O)CNC(=O)[C@H](Cc2c[nH]cn2)NC(=O)[C@H](Cc2ccc(O)cc2)NC(=O)COCCOCCNC(=O)COCCOCCNC(=O)CC[C@H](NC(=O)CCCCCCCCCCCCCCCCC(=O)O)C(=O)O)CSSC[C@@H](C(=O)O)NC(=O)CNC(=O)[C@H](CC(C)C)NC(=O)CNC(=O)[C@H](CO)NC(=O)[C@H](CC(C)C)NC(=O)[C@H](CO)NC(=O)CNC1=O [compound 1322] ({C18 diacid-γGlu-AEEA-AEEA}-YHGAQHHGLSKGCFGLKLERIGSLSGLGC-OH; disulfide 13-29; C-terminus assumed) | 1.9% | 4.73 nM |
| CC[C@H](C)[C@@H]1NC(=O)[C@H](CCCNC(=N)N)NC(=O)[C@H](CCC(=O)O)NC(=O)[C@H](CC(C)C)NC(=O)[C@H](CCCCN)NC(=O)[C@H](CC(C)C)NC(=O)CNC(=O)[C@H](Cc2ccccc2)NC(=O)[C@@H](NC(=O)CNC(=O)[C@H](CCCCN)NC(=O)[C@H](CO)NC(=O)[C@H](CC(C)C)NC(=O)CNC(=O)[C@H](Cc2c[nH]cn2)NC(=O)[C@H](Cc2c[nH]cn2)NC(=O)[C@H](CCC(N)=O)NC(=O)[C@H](C)NC(=O)CNC(=O)[C@H](Cc2c[nH]cn2)NC(=O)[C@H](Cc2ccc(O)cc2)NC(=O)COCCOCCNC(=O)COCCOCCNC(=O)CC[C@H](NC(=O)CC[C@H](NC(=O)CCCCCCCCCCCCCCCCC(=O)O)C(=O)O)C(=O)O)CSSC[C@@H](C(=O)O)NC(=O)CNC(=O)[C@H](CC(C)C)NC(=O)CNC(=O)[C@H](CO)NC(=O)[C@H](CC(C)C)NC(=O)[C@H](CO)NC(=O)CNC1=O [compound 1323] ({C18 diacid-γGlu-γGlu-AEEA-AEEA}-YHGAQHHGLSKGCFGLKLERIGSLSGLGC-OH; disulfide 13-29; C-terminus assumed) | 0.8% | 11.2 nM |
| CC[C@H](C)[C@@H]1NC(=O)[C@H](CCCNC(=N)N)NC(=O)[C@H](CCC(=O)O)NC(=O)[C@H](CC(C)C)NC(=O)[C@H](CCCCN)NC(=O)[C@H](CC(C)C)NC(=O)CNC(=O)[C@H](Cc2ccccc2)NC(=O)[C@@H](NC(=O)CNC(=O)[C@H](CCC(N)=O)NC(=O)[C@H](CO)NC(=O)[C@H](CC(C)C)NC(=O)CNC(=O)[C@H](Cc2c[nH]cn2)NC(=O)[C@H](Cc2c[nH]cn2)NC(=O)[C@H](CCC(N)=O)NC(=O)[C@H](C)NC(=O)CNC(=O)[C@H](CCCCN)NC(=O)[C@H](Cc2ccc(O)cc2)NC(=O)COCCOCCNC(=O)COCCOCCNC(=O)CC[C@H](NC(=O)CC[C@H](NC(=O)CCCCCCCCCCCCCCCCC(=O)O)C(=O)O)C(=O)O)CSSC[C@@H](C(=O)O)NC(=O)CNC(=O)[C@H](CC(C)C)NC(=O)CNC(=O)[C@H](CO)NC(=O)[C@H](CC(C)C)NC(=O)[C@H](CO)NC(=O)CNC1=O [compound 1324] ({C18 diacid-γGlu-γGlu-AEEA-AEEA}-YKGAQHHGLSQGCFGLKLERIGSLSGLGC-OH; disulfide 13-29) | 1.6% | 5.51 nM |
